Reference: publication PMC12645191, “Dicarboxylate and dicarboxylic acid appended supramolecular self-associating amphiphiles as antimicrobial agents against high priority bacterial pathogens” (Organic & Biomolecular Chemistry, 2025)
Converted amounts (≈) assume the structure as drawn. “And” between values parts separate entries of the source, which are not always exact repeats. Equal values may be shown once. Read-outs that look alike come from different tables or passages of the source. Marks after values point to notes of the source that are not given here.

Legend:
S. aureus ATCC 9144 = experiment: inhibition of bacterial growth, OD600 after 20 h; assay type: cell-based, Staphylococcus aureus; conditions: SSA 5.0 mM, 2.5% ethanol, negative = enhanced growth
Protocol: With the self-associative properties of 1–10 established, the antimicrobial activity of these SSAs were determined against a panel of clinically relevant, high-priority pathogens including: P. aeruginosa PAO1; Klebsiella pneumonia (K. pneumoniae) M6; E. coli NCTC 12923; Acinetobacter baumannii (A. baumannii) ATCC 17978; S. aureus ATCC 9144; Enterococcus faecalis (E. faecalis) NCTC 775; and Enterococcus faecium (E. faecium) NCTC 12204. […] However, it should be noted that the SSA stock solution was prepared in a H2O 5% EtOH solution, to ensure that the SSA aggregates formed were in line with those characterised within the scope of the SSA self-association studies.
Section 3: Biological methods
These methods were taken directly from UK Health and Security Office (UKHSA) standard […]
Preparation of Luria Broth media (LB): Yeast extract (5.0 g), tryptone (10.0 g) and sodium chloride (10.0 g) were dissolved in dH₂O (1.0 L) then divided into bottles and autoclaved.
Preparation of Luria Broth (LB) agar plates: Agar (6.0 g) was added to LB (400 mL) and autoclaved. Once cool, the LB agar was poured into sterile petri dishes under sterile conditions and allowed to set. LB plates were stored at 4 °C until use.
Preparation of bacterial plates: Sterile LB agar plates were streaked using streaked using the desired bacteria i) Pseudomonas aeruginosa (P.aeruginosa) PAO1, ii) Klebsiella pneumoniae (K. pneumoniae) M6 iii) E. coli NCTC 12923 and iv) Acinetobacter baumannii (A. baumannii) ATCC 17978 and Gram-positive i) Staphylococcus aureus (S. aureus) ATCC 9144 ii) Enterococcus faecalis (E. faecalis) NCTC 775 and iii) Enterococcus faecium (E. faecium ) NCTC 12204, then incubated at 37 °C overnight.
Preparation of Inoculum: An initial culture was made up by inoculating LB media (5 mL) with a single colony of bacteria under sterile conditions and incubated at 37 °C with shaking overnight. The following day, overnight bacterial cultures were subcultured into fresh LB medium to a starting OD600 of 0.01.
Preparation of 96 well microplate for MIC50: The 1:100 cell suspension (150 µL) was dispensed into individual wells under sterile conditions. SSAs (30 µL) were added to the wells to equal a total volume of 180 µL in the wells. Six repeats of each concentration for each SSA were created each plate. The plates were sealed using parafilm, then incubated at 37 °C in a microplate reader for 20 hours. OD600 endpoint data was used to generate growth curves. […]

[1] = tensiometry: critical aggregate concentration (CAC) and surface tension; assay type: physicochemical; conditions: for Surface tension at CAC: H2O/5.0 % EtOH
Protocol: As the (Q) ^1H NMR spectroscopy experiments conducted at 5.6 mM in a D2O 5.0% EtOH solution confirmed the presence of higher-order self-associated structures with solid-like properties, concentration dependent surface tension measurements, obtained through tensiometry, were used to calculate critical aggregate concentration (CAC). Here the CAC is defined as the point at which an increase in SSA concentration no longer decreases surface tension but instead results in the formation of higher-order self-associated structures.

[2] = kinetic solubility determination in PBS pH 7.4; conditions: upper limit set at 300 µM
[3] = metabolic stability in liver microsomes; assay type: in vitro ADME, mouse
Protocol: (§1) Metabolic stability was assessed in mouse and rat liver microsomes. Microsomes are subcellular fractions of hepatocytes and contain CYP450s, the predominant enzymes involved in first-pass metabolism.[66] […] A plasma protein binding assay was performed to assess the extent of compound binding to plasma proteins. This is key as only unbound compound is free to distribute and exert a pharmacological effect. […] To assess the potential for this sub-class of SSAs to be developed as drugs for oral administration, Caco-2 permeability assays were also performed, as a cellular model indicative of human intestinal permeability.
(§2) Section 3: Biological methods […]
(§3) In vitro Absorption, Distribution and Metabolism
(§4) These studies were performed by Contract Research Organisation (CRO) Pharmaron. The methodology provided within the ESI is published within the express permission of this organisation. The percentage of a compound recovered during the analysis process should be 100 %; any deviation from this value indicates experimental limitations such as unintended potential non-specific binding events to experimental equipment, solubility issues, etc.
(§5) Metabolic Stability in Rat and Mouse Liver Microsomes:
(§6) The metabolic stability of compounds at a concentration of 1 µM, in rat and mouse liver […]
(§7) / mL) in the presence and absence of cofactor (NADPH) at 37 °C. Aliquots of each incubation were removed at 0.5, 5, 15, 30 and 60 minutes. The reaction was stopped by the addition of 5 volumes of cold acetonitrile containing analytical internal standard (IS).
(§8) Samples were then centrifuged at 3 °C, 220 g for 40 minutes to remove cell debris. The supernatant was aliquoted and added to ultra-pure H2O in a 1:1 ratio in preparation for LC- […]
(§9) Samples were analysed using a Shimadzu liquid chromatography system coupled to a Triple Quad 6500+ mass spectrometry (AB Inc.) Separation of compounds was achieved using an HSS T3 column (50 x 2.1 mm) at a temperature of 40 °C and a binary mobile phase gradient […]
(§10) at a flow rate of 0.7 mL/min. […]
(§11) acid in water) and 5 % solvent B (0.1 % formic acid in acetonitrile). […]
(§12) solvent B at 0.7 minutes, held for 0.5 minutes and then immedi ately returned to initial conditions. Sample analysis was by electrospray ionisation. […]

[4] = metabolic stability in liver microsomes; assay type: in vitro ADME, rat
Protocol: as §1, §2, §3, §4, §5, §6, §7, §8, §9, §10, §11, §12

[5] = mouse liver microsomes, 1 µM, 0.5 mg protein/mL
[6] = rat liver microsomes, 1 µM, 0.5 mg protein/mL

| Structure (SMILES) | Hepatic Extraction Ratio (ER) ([3]; mouse) | Predicted Hepatic CLH ([3]; mouse) | Remaining percentage ([3]; mouse, +Cofactors, 0.5 min) | Remaining percentage ([3]; mouse, +Cofactors, 5 min) | Remaining percentage ([3]; mouse, +Cofactors, 15 min) | Remaining percentage ([3]; mouse, +Cofactors, 30 min) | Remaining percentage ([3]; mouse, +Cofactors, 60 min) | Remaining percentage ([3]; mouse, -Cofactors, 0.5 min) | Remaining percentage ([3]; mouse, -Cofactors, 60 min) | Hepatic Extraction Ratio (ER) ([4]; rat) | Predicted Hepatic CLH ([4]; rat) | Remaining percentage ([4]; rat, +Cofactors, 0.5 min) | Remaining percentage ([4]; rat, +Cofactors, 5 min) | Remaining percentage ([4]; rat, +Cofactors, 15 min) | Remaining percentage ([4]; rat, +Cofactors, 30 min) | Remaining percentage ([4]; rat, +Cofactors, 60 min) | Remaining percentage ([4]; rat, -Cofactors, 0.5 min) | Remaining percentage ([4]; rat, -Cofactors, 60 min) | other results |
| --- | --- | --- | --- | --- | --- | --- | --- | --- | --- | --- | --- | --- | --- | --- | --- | --- | --- | --- | --- |
| O=C(O)CC[C@H](NC(=O)Nc1ccc(C(F)(F)F)cc1)C(=O)O [SSA 2] | < 0.26 | < 23.07 mL/min/kg | 100.00% | 101.97% | 102.46% | 101.55% | 102.31% | 100.00% | 102.89% | < 0.21 | < 14.42 mL/min/kg | 100.00% | 95.53% | 94.28% | 97.57% | 96.64% | 100.00% | 97.74% | Percentage inhibition of bacterial growth, ATCC 9144 (S. aureus) (S. aureus ATCC 9144): 79.71% and 80%; CAC ([1]; H2O 5.0% EtOH, 298 K): 19.84 mM and 20 mM; ST at CAC ([1]; H2O 5.0% EtOH, 298 K): 37 mN m^−1; Surface tension at CAC [1]: 37.13 mN/m; Solubility in PBS pH 7.4 ([2]; kinetic): 297.29 μM; Scale-up CLint ([3]; mouse): < 31.02 mL/min/kg; in vitro CLint [3, 5]: < 7.50 µL/min/mg; in vitro t1/2 [3, 5]: > 3.0797 h; Scale-up CLint ([4]; rat): < 18.30 mL/min/kg; in vitro CLint [4, 6]: < 7.50 µL/min/mg; in vitro t1/2 [4, 6]: > 3.0797 h |
| O=C(O)CC[C@H](NC(=O)Nc1ccc(Br)cc1)C(=O)O [SSA 9] | < 0.26 | < 23.07 mL/min/kg | 100.00% | 101.88% | 100.09% | 97.61% | 103.16% | 100.00% | 103.83% | < 0.21 | < 14.42 mL/min/kg | 100.00% | 97.95% | 96.49% | 99.04% | 100.06% | 100.00% | 102.63% | Percentage inhibition of bacterial growth, ATCC 9144 (S. aureus) (S. aureus ATCC 9144; listed as 9): 60.74% and 61%; CAC (footnote in place of a value) ([1]; H2O 5.0% EtOH, 298 K): ^c (CAC is >100 mM); ST at the limit of solubility or 100 mM, whichever concentration is lower ([1]; H2O 5.0% EtOH, 298 K): 54 ^d mN m^−1; Surface tension at CAC ([1]; listed as 9): 54.44 mN/m; solubility ([2]; PBS, pH 7.4, aqueous buffer, kinetic from dmso stock, Solubility in PBS pH 7.4, kinetic): 305 µM (≈ 105 µg/mL); microsomal CLint at 1 µM ([3]; mouse liver microsomes, 1 µM, 0.5 mg protein/mL, read-out: in vitro CLint): < 7.5 µL/min/mg; half-life at 1 µM ([3]; mouse liver microsomes, 1 µM, 0.5 mg protein/mL, read-out: in vitro t1/2): > 3.08 h; CLint scaled at 1 µM ([3]; mouse, liver microsomes, read-out: Scale-up CLint): < 31 mL/min/kg; microsomal CLint at 1 µM ([4]; rat liver microsomes, 1 µM, 0.5 mg protein/mL, read-out: in vitro CLint): < 7.5 µL/min/mg; half-life at 1 µM ([4]; rat liver microsomes, 1 µM, 0.5 mg protein/mL, read-out: in vitro t1/2): > 3.08 h; CLint scaled at 1 µM ([4]; rat, liver microsomes, read-out: Scale-up CLint): < 18.3 mL/min/kg |
